Test results taken from patent US6849616B1, “Methods to potentiate intravenous estramustine phosphate” (Pharmacia Italia S.p.A., priority 1998, dated 2005).

Key:
[1] = system: hormone refractory prostate cancer; details: oral, combined with vinblastine, cited from earlier work
[2] = system: hormone refractory prostate cancer; details: with Taxol, cited from earlier work
[3] = cited from earlier work
prostate cancer = details: given orally with escalating doses of docetaxel, cited from earlier work
[4] = system: advanced metastatic prostate cancer; assay: Clinical cases: weekly high-dose intravenous estramustine phosphate
[5] = system: hormone refractory prostate cancer; details: oral, combined with Etoposide, cited from earlier work
[6] = patients, single intravenous dose of 300 mg; previous data; cited from earlier work
[7] = Gunnarsson, 1981, 1984; cited from earlier work
[8] = system: estramustine binding protein (EMBP); details: cited from earlier work
[9] = Pharmacokinetics after a single high intravenous dose of estramustine phosphate in patients; details: after a single high intravenous dose of estramustine phosphate at 1000 mg/m^2; FIG. 2
tubulin = details: in vitro (Dahllof 1993); cited from earlier work
tumor cell division = details: tissue culture (Hartley-Asp, 1984); cited from earlier work
[10] = 245 patients, 300-600 mg/day i.v. for 21 days then once or twice weekly for 2 months (Andersson et al)
[11] = 1000 mg/m^2 i.v. central line, 30 minute infusion, three patients
[12] = 1500 mg/m^2 i.v. central line, 30 minutes or 1 hour infusion, three patients
[13] = 2000 mg/m^2 i.v. central line, 60 minute infusion, with anti-thrombotic agent, three patients
[14] = 2500 mg/m^2 i.v. central line, 90 minute infusion, two patients

## C[C@]12CC[C@@H]3c4ccc(OC(=O)N(CCCl)CCCl)cc4CC[C@H]3[C@@H]1CC[C@@H]2OP(=O)(O)O [estramustine phosphate]
[1]; 4/37
  incidence of significant cardiovascular toxicity: 10.5%
[1]; among 88 patients
  decrease in prostate specific antigen: 50-75%
[1]
  most frequent toxicity: mild to moderate nausea
[2]; 6 patients
  transient hepatic enzyme elevation of grade 1-3: 35.2%
[2]; 8 patients
  edema: 47%
[2]; of six patients with measurable disease, PR of 2+, 6, and 8 months
  patients obtaining a PR: 3
[2]; seventeen patients
  Grade 3-4 granulocytopenia and mucositis: 2 patients
  median duration of response: 7 months
  nausea grade 1-2: 70.5%
  patients with PSA decreased by ≧50%: 58.8%
[3]; 450 mg/day i.v. (Nagel and Kölln 1977)
  toxicity at 450 mg/day intravenous: severe gastrointestinal problems
[3]; 900 mg/day i.v. for 7-10 days followed by oral therapy, 11 of 18 patients (Maier 1990)
  patients with severe liver problems: 61%
[3]; [10]
  patients exhibiting gastrointestinal problems: 17%
  patients exhibiting liver disturbances: 9%
  patients exhibiting thrombophlebitis: 20%
Prostate cancer
  overall prostate specific antigen response rate: 62%
Prostate cancer; patients with bidimensionally measurable disease (3 patients)
  partial response in lymph nodes: 43%
[4]; [11]
  PSA response: several patients demonstrating PSA response
  tolerability of infusions: well tolerated
[4]; [12]
  tolerability of infusions: well tolerated
  tumor response: one patient demonstrating a response in bulky tumor adenopathy
[4]; [13]
  PSA response: evidence of PSA response
  tolerability of infusions: well tolerated without serious toxicity
[4]; [14]
  prostate specific antigen (PSA) response: both patients demonstrated a response (reduction)
  tolerability of infusions: well tolerated without serious toxicity
[5]; 20 patients with soft tissue disease (3 patients)
  complete responses (CR): 15%
[5]; 20 patients with soft tissue disease (6 patients)
  partial responses (PR): 30%
[5]; 32 patients with bone metastases (8 patients)
  patients with bone metastases improved: 25%
[5]; 32 patients with bone metastases (12 patients)
  patients with bone metastases stable: 38%
[5]; overall, 13 men
  men with a 75% decrease in prostate specific antigen: 25%
[5]; overall, 28 men
  men with a 50% decrease in prostate specific antigen: 54%

## C[C@]12CC[C@@H]3c4ccc(OC(=O)N(CCCl)CCCl)cc4CC[C@H]3[C@@H]1CCC2=O [estromustine]
[6]
  elimination half lives of estromustine: 10 to 20 h
[7]
  yield of estradiol and estrone, respectively, by cleavage of the carbamic ester: approximately 15%
[8]
  binding affinity to EMBP-like protein: very high affinity
[9]
  half life of estromustine: approximately 100 hours

## C[C@]12CC[C@@H]3c4ccc(OC(=O)N(CCCl)CCCl)cc4CC[C@H]3[C@@H]1CC[C@@H]2O [estramustine]
tubulin
  effect on assembly of microtubules composed of only tubulin: inhibited the assembly of microtubules
[7]
  yield of estradiol and estrone, respectively, by cleavage of the carbamic ester: approximately 15%
Tumor cell division
  anti-mitotic effect: dose-dependent blocking of tumor cell division in the metaphase
[8]
  binding affinity to EMBP-like protein: very high affinity
